In patent US10131652B2, “Pyrimidinyloxy benzene derivatives as herbicides” (E. I. DU PONT DE NEMOURS AND COMPANY, priority 2014, dated 2018):
Read-outs that look alike come from different tables or passages of the source.

Key:
Test in all cases: Test D pre-/postemergence plant response
Assay type in all cases: in vivo
[1] = tested on: ragweed (common ragweed, Ambrosia elatior); conditions: Ambrosia artemisiifolia; for pest or weed control at 16 g/ha: 16 g ai/ha; for pest or weed control at 31 g/ha: 31 g ai/ha; for pest or weed control at 62 g/ha: 62 g ai/ha; for pest or weed control at 125 g/ha: 125 g ai/ha
Outline: (§1)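 Ratings were visual, 0 = no effect to 100 = complete control, taken against untreated controls after 13 to 15 days in a greenhouse. Chemicals, formulated in non-phytotoxic surfactant-containing solvent, went onto soil (loam/sand) at planting for preemergence, or onto 1- to 4-leaf plants (2–18 cm) for postemergence.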

[2] = tested on: soybean (Glycine max); conditions: Glycine max; for plant injury at 16 g/ha: 16 g ai/ha; for plant injury at 31 g/ha: 31 g ai/ha; for plant injury at 62 g/ha: 62 g ai/ha; for plant injury at 125 g/ha: 125 g ai/ha
Outline: as §1

[3] = tested on: corn (Zea mays); conditions: Zea mays; for Corn plant response rating (crop injury, 0 = no effect, 100 = complete kill) at 62 g/ha: 62 g ai/ha
Outline: as §1

[4] = tested on: Italian ryegrass (Lolium multiflorum); conditions: Lolium multiflorum; for pest or weed control at 16 g/ha: 16 g ai/ha; for pest or weed control at 31 g/ha: 31 g ai/ha; for pest or weed control at 62 g/ha: 62 g ai/ha; for pest or weed control at 125 g/ha: 125 g ai/ha
Outline: as §1

[5] = tested on: giant foxtail (Setaria faberii); conditions: Setaria faberi; for pest or weed control at 16 g/ha: 16 g ai/ha; for pest or weed control at 31 g/ha: 31 g ai/ha; for pest or weed control at 62 g/ha: 62 g ai/ha; for pest or weed control at 125 g/ha: 125 g ai/ha
Outline: as §1

[6] = tested on: waterhemp (common waterhemp, Amaranthus rudis); conditions: Amaranthus tuberculatus; for pest or weed control at 16 g/ha: 16 g ai/ha; for pest or weed control at 125 g/ha: 125 g ai/ha
Outline: as §1

[7] = pre-emergence, Preemergence, scale 0 to 100 (0 no effect, 100 complete control), read-out: Plant response rating, Ragweed
[8] = pre-emergence, Preemergence, scale 0 to 100 (0 no effect, 100 complete control), read-out: Plant response rating, Soybean
[9] = pre-emergence, Preemergence, scale 0 to 100 (0 no effect, 100 complete control), read-out: Plant response rating, Ryegrass, Italian
[10] = post-emergence, Postemergence, scale 0 to 100, 0 no effect, 100 complete control, read-out: Plant response rating, Foxtail, Giant
[11] = pre-emergence, Preemergence, scale 0 to 100 (0 no effect, 100 complete control), read-out: Plant response rating, Foxtail, Giant

SMILES: FC(F)(F)c1cc(-c2ccccc2Oc2ncc(Cl)cn2)no1 [Compound 200, 5-chloro-2-[2-[5-(trifluoromethyl)-3-isoxazolyl]phenoxy]pyrimidine]
- pest or weed control at 16 g/ha ([1]; post-emergence, Postemergence, read-out: Plant response rating (scale 0 to 100), Ragweed): 30%
- pest or weed control at 31 g/ha ([1]; post-emergence, Postemergence, scale 0 to 100 (0 no effect, 100 complete control), read-out: Ragweed plant response rating): 55%
- pest or weed control at 62 g/ha ([1]; post-emergence, Postemergence, scale 0 to 100, 0 no effect, 100 complete control, read-out: Ragweed plant response rating): 60%
- pest or weed control at 125 g/ha ([1]; post-emergence, Postemergence, scale 0 to 100, 0 no effect, 100 complete control, read-out: Plant response rating, Ragweed): 40%
- pest or weed control at 125 g/ha ([1]; pre-emergence, Preemergence, read-out: Plant response rating (scale 0 to 100), Ragweed): 80%
- pest or weed control at 16 g/ha [1, 7]: 0%
- pest or weed control at 31 g/ha [1, 7]: 5%
- pest or weed control at 62 g/ha [1, 7]: 70%
- plant injury at 16 g/ha ([2]; post-emergence, Postemergence, read-out: Plant response rating (scale 0 to 100), Soybean): 60%
- plant injury at 31 g/ha ([2]; post-emergence, Postemergence, scale 0 to 100 (0 no effect, 100 complete control), read-out: Soybean plant response rating): 85%
- plant injury at 62 g/ha ([2]; post-emergence, Postemergence, scale 0 to 100, 0 no effect, 100 complete control, read-out: Soybean plant response rating): 90%
- plant injury at 125 g/ha ([2]; post-emergence, Postemergence, scale 0 to 100, 0 no effect, 100 complete control, read-out: Plant response rating, Soybean): 98%
- plant injury at 125 g/ha ([2]; pre-emergence, Preemergence, read-out: Plant response rating (scale 0 to 100), Soybean): 85%
- plant injury at 16 g/ha [2, 8]: 100%
- plant injury at 31 g/ha [2, 8]: 10%
- plant injury at 62 g/ha [2, 8]: 40%
- plant injury at 16 g/ha ([3]; post-emergence, Postemergence, 16 g ai/ha, read-out: Plant response rating (scale 0 to 100), Corn): 5%
- plant injury at 31 g/ha ([3]; post-emergence, Postemergence, 31 g ai/ha, scale 0 to 100 (0 no effect, 100 complete control), read-out: Corn plant response rating): 5%
- Corn plant response rating (crop injury, 0 = no effect, 100 = complete kill) at 62 g/ha ([3]; post-emergence, Postemergence, scale 0 to 100, 0 no effect, 100 complete control): 10%
- Corn plant response rating (crop injury, 0 = no effect, 100 = complete kill) at 125 g/ha ([3]; post-emergence, Postemergence, 125 g ai/ha, scale 0 to 100, 0 no effect, 100 complete control): 15%
- plant injury at 125 g/ha ([3]; pre-emergence, Preemergence, 125 g ai/ha, read-out: Plant response rating (scale 0 to 100), Corn): 20%
- Corn plant response rating (crop injury, 0 = no effect, 100 = complete kill) at 16 g/ha ([3]; pre-emergence, Preemergence, 16 g ai/ha, scale 0 to 100 (0 no effect, 100 complete control)): 0%
- Corn plant response rating (crop injury, 0 = no effect, 100 = complete kill) at 31 g/ha ([3]; pre-emergence, Preemergence, 31 g ai/ha, scale 0 to 100 (0 no effect, 100 complete control)): 0%
- Corn plant response rating (crop injury, 0 = no effect, 100 = complete kill) at 62 g/ha ([3]; pre-emergence, Preemergence, scale 0 to 100 (0 no effect, 100 complete control)): 10%
- pest or weed control at 16 g/ha ([4]; post-emergence, Postemergence, read-out: Plant response rating (scale 0 to 100), Ryegrass, Italian): 20%
- pest or weed control at 31 g/ha ([4]; post-emergence, Postemergence, scale 0 to 100 (0 no effect, 100 complete control), read-out: Ryegrass, Italian plant response rating): 25%
- pest or weed control at 62 g/ha ([4]; post-emergence, Postemergence, scale 0 to 100, 0 no effect, 100 complete control, read-out: Ryegrass, Italian plant response rating): 35%
- pest or weed control at 125 g/ha ([4]; post-emergence, Postemergence, scale 0 to 100, 0 no effect, 100 complete control, read-out: Plant response rating, Ryegrass, Italian): 35%
- pest or weed control at 125 g/ha ([4]; pre-emergence, Preemergence, read-out: Plant response rating (scale 0 to 100), Ryegrass, Italian): 90%
- pest or weed control at 16 g/ha [4, 9]: 30%
- pest or weed control at 31 g/ha [4, 9]: 80%
- pest or weed control at 62 g/ha [4, 9]: 85%
- pest or weed control at 16 g/ha ([5]; post-emergence, Postemergence, read-out: Plant response rating (scale 0 to 100), Foxtail, Giant): 5%
- pest or weed control at 31 g/ha ([5]; post-emergence, Postemergence, scale 0 to 100 (0 no effect, 100 complete control), read-out: Foxtail, Giant plant response rating): 20%
- pest or weed control at 62 g/ha [5, 10]: 10%
- pest or weed control at 125 g/ha [5, 10]: 15%
- pest or weed control at 125 g/ha ([5]; pre-emergence, Preemergence, read-out: Plant response rating (scale 0 to 100), Foxtail, Giant): 100%
- pest or weed control at 16 g/ha [5, 11]: 95%
- pest or weed control at 31 g/ha [5, 11]: 100%
- pest or weed control at 62 g/ha [5, 11]: 100%
- pest or weed control at 16 g/ha ([6]; post-emergence, Postemergence, read-out: Plant response rating (scale 0 to 100), Waterhemp): 80%
- pest or weed control at 31 g/ha ([6]; post-emergence, Postemergence, 31 g ai/ha, scale 0 to 100 (0 no effect, 100 complete control), read-out: Waterhemp plant response rating): 90%
- pest or weed control at 62 g/ha ([6]; post-emergence, Postemergence, 62 g ai/ha, scale 0 to 100, 0 no effect, 100 complete control, read-out: Waterhemp plant response rating): 98%
- pest or weed control at 125 g/ha ([6]; post-emergence, Postemergence, scale 0 to 100, 0 no effect, 100 complete control, read-out: Plant response rating, Waterhemp): 100%
- pest or weed control at 125 g/ha ([6]; pre-emergence, Preemergence, read-out: Plant response rating (scale 0 to 100), Waterhemp): 100%
- pest or weed control at 16 g/ha ([6]; pre-emergence, Preemergence, scale 0 to 100 (0 no effect, 100 complete control), read-out: Plant response rating, Waterhemp): 98%
